According to ChEMBL document CHEMBL1201862, “PubChem BioAssay data set” (2004):
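These data come from cells grown in 96-well plates and exposed to compound for 48 hours at five concentrations. GI50: concentration for 50% inhibition of growth.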 Active and inactive are the calls of the source. Cut-off read from the data, not from the text of the source: active = GI50 up to about 1.1 µM and inactive = higher.

How the values were obtained:
Test in all cases: NCI tumour cell line growth inhibition, 48 h
CAKI-1 = test system: CAKI-1
TK-10 = test system: TK-10
SF-539 = test system: SF-539
KM12 = test system: KM12
MOLT-4 = test system: MOLT-4
NCI-H23 = test system: NCI-H23
MDA-MB-435 = test system: MDA-MB-435
A498 = test system: A498
COLO 205 = test system: COLO 205
M14 = test system: M14
SK-MEL-5 = test system: SK-MEL-5
LOX IMVI = test system: LOX IMVI
BT-549 = test system: BT-549
SNB-75 = test system: SNB-75
OVCAR-3 = test system: OVCAR-3
NCI-H522 = test system: NCI-H522
786-0 = test system: 786-0
EKVX = test system: EKVX
HCC 2998 = test system: HCC 2998

SMILES	GI50 (CAKI-1)	GI50 (TK-10)	GI50 (SF-539)	GI50 (KM12)	GI50 (MOLT-4)	GI50 (NCI-H23)	GI50 (MDA-MB-435)	GI50 (A498)	GI50 (COLO 205)	GI50 (M14)	GI50 (SK-MEL-5)	GI50 (LOX IMVI)	GI50 (BT-549)	GI50 (SNB-75)	GI50 (OVCAR-3)	GI50 (NCI-H522)	GI50 (786-0)	GI50 (EKVX)	GI50 (HCC 2998)
CCCN(CCc1ccc(-c2ccccc2)cc1)CCc1ccc2nn[nH]c2c1	12.6 µM (inactive)	11.5 µM (inactive)	10.7 µM (inactive)	11.9 µM (inactive)	3.75 µM (inactive)	12.2 µM (inactive)	8.93 µM (inactive)	17.3 µM (inactive)	2.55 µM (inactive)	4.28 µM (inactive)	3.91 µM (inactive)	10.6 µM (inactive)	8.2 µM (inactive)	12.3 µM (inactive)	12.5 µM (inactive)	11.8 µM (inactive)	11.7 µM (inactive)	13.5 µM (inactive)	6.71 µM (inactive)
COc1ccc2nc(-c3ccccc3)cc(OCC(=O)O)c2c1	> 100 µM (inactive)	> 100 µM (inactive)	> 100 µM (inactive)	> 100 µM (inactive)	> 100 µM (inactive)	> 100 µM (inactive)	> 100 µM (inactive)	> 100 µM (inactive)	> 100 µM (inactive)	> 100 µM (inactive)	> 100 µM (inactive)	> 100 µM (inactive)	> 100 µM (inactive)	> 100 µM (inactive)	> 100 µM (inactive)	> 100 µM (inactive)	> 100 µM (inactive)	> 100 µM (inactive)	> 100 µM (inactive)
O=C1C[C@H]2[C@@H](O1)[C@@H](O)CN1C(=O)c3ccccc3[C@H]21	> 100 µM (inactive)	> 100 µM (inactive)	> 100 µM (inactive)	> 100 µM (inactive)	> 100 µM (inactive)	> 100 µM (inactive)	> 100 µM (inactive)	> 100 µM (inactive)	> 100 µM (inactive)	> 100 µM (inactive)	> 100 µM (inactive)	> 100 µM (inactive)	> 100 µM (inactive)	> 100 µM (inactive)		> 100 µM (inactive)	> 100 µM (inactive)	> 100 µM (inactive)	> 100 µM (inactive)
O=C1c2ccccc2C(=O)c2c(OCC3CO3)ccc(OCC3CO3)c21 (configuration not stated)	1.91 µM (inactive)	18.8 µM (inactive)	4.15 µM (inactive)	5.04 µM (inactive)	0.0653 µM (active)	4.12 µM (inactive)	2.7 µM (inactive)	17.9 µM (inactive)	4.44 µM (inactive)	1.3 µM (inactive)	5.69 µM (inactive)	0.0386 µM (active)	6.28 µM (inactive)	12.4 µM (inactive)	3.4 µM (inactive)	3.26 µM (inactive)	1.48 µM (inactive)	12.5 µM (inactive)	16.1 µM (inactive)
C=CCn1c(-c2ccc([N+](=O)[O-])cc2)csc1=N	69.5 µM (inactive)	66.7 µM (inactive)		36.6 µM (inactive)		30 µM (inactive)	43.5 µM (inactive)	> 100 µM (inactive)	> 100 µM (inactive)	56.9 µM (inactive)	14.8 µM (inactive)	20.3 µM (inactive)	92.5 µM (inactive)	19.5 µM (inactive)	41.4 µM (inactive)	36.6 µM (inactive)	74.6 µM (inactive)	16.4 µM (inactive)	> 100 µM (inactive)
Oc1ccc(-c2nn3c(CCCCCCCCc4nnc5sc(-c6ccc(O)cc6)nn45)nnc3s2)cc1	> 100 µM (inactive)	> 100 µM (inactive)	> 100 µM (inactive)	> 100 µM (inactive)	95.7 µM (inactive)	> 100 µM (inactive)	> 100 µM (inactive)	> 100 µM (inactive)	> 100 µM (inactive)	> 100 µM (inactive)	> 100 µM (inactive)	> 100 µM (inactive)	> 100 µM (inactive)	> 100 µM (inactive)	> 100 µM (inactive)	> 100 µM (inactive)	> 100 µM (inactive)	> 100 µM (inactive)	> 100 µM (inactive)
C=C1C(=O)OC2/C=C(\C)C(=O)CC3OC(C)(C)OC3(C)CC(OC(=O)/C(C)=C/C)C12 (configuration not stated)	3.51 µM (inactive)	13.2 µM (inactive)	17.1 µM (inactive)	17.9 µM (inactive)	6.61 µM (inactive)	20.2 µM (inactive)	19.6 µM (inactive)	21.9 µM (inactive)	6.35 µM (inactive)	22.5 µM (inactive)	14.7 µM (inactive)	12.2 µM (inactive)	10.4 µM (inactive)	> 42.9 µM (inactive)	10.8 µM (inactive)	2.99 µM (inactive)	7.66 µM (inactive)	14.2 µM (inactive)	15.9 µM (inactive)
COC(=O)c1ccc(C)cc1CC1Cc2cc(C)ccc2C1=O (configuration not stated)	> 100 µM (inactive)	> 100 µM (inactive)	> 100 µM (inactive)	> 100 µM (inactive)	> 100 µM (inactive)	> 100 µM (inactive)	> 100 µM (inactive)	> 100 µM (inactive)	> 100 µM (inactive)	> 100 µM (inactive)		> 100 µM (inactive)	94.2 µM (inactive)	> 100 µM (inactive)	> 100 µM (inactive)	> 100 µM (inactive)	> 100 µM (inactive)	> 100 µM (inactive)	> 100 µM (inactive)
O=S(=O)(c1ccccc1)n1c2cc3cccnc3nc2c2cccnc21	> 100 µM (inactive)	> 100 µM (inactive)		> 100 µM (inactive)	45.3 µM (inactive)	44.9 µM (inactive)	25.5 µM (inactive)	> 100 µM (inactive)	72.9 µM (inactive)	> 100 µM (inactive)	54.3 µM (inactive)	42.5 µM (inactive)	> 100 µM (inactive)	28.4 µM (inactive)	38.5 µM (inactive)	33.3 µM (inactive)	71.8 µM (inactive)	> 100 µM (inactive)	> 100 µM (inactive)
Cc1nc(-[n+]2nc(-c3ccncc3)nn2-c2ccccc2)sc1C	19.1 µM (inactive)	21.8 µM (inactive)	8.53 µM (inactive)	36.9 µM (inactive)	4.72 µM (inactive)	57.9 µM (inactive)	23.4 µM (inactive)	92.7 µM (inactive)	34.4 µM (inactive)	49.3 µM (inactive)	29.4 µM (inactive)	2.69 µM (inactive)	17.1 µM (inactive)	42.9 µM (inactive)		3.15 µM (inactive)	19.1 µM (inactive)	27.2 µM (inactive)	> 100 µM (inactive)
Cc1cc(=O)oc2cc(O)c(CN(C)CC(=O)O)cc12	> 100 µM (inactive)	> 100 µM (inactive)	> 100 µM (inactive)	> 100 µM (inactive)		> 100 µM (inactive)	> 100 µM (inactive)	> 100 µM (inactive)	> 100 µM (inactive)	> 100 µM (inactive)	> 100 µM (inactive)	> 100 µM (inactive)	> 100 µM (inactive)	> 100 µM (inactive)		> 100 µM (inactive)	> 100 µM (inactive)	> 100 µM (inactive)	> 100 µM (inactive)
COc1ccc(-c2cc(=O)c3c(OC)c(OC)c(OC)c(OC)c3o2)cc1 [TANGERETIN]	53.6 µM (inactive)	58.2 µM (inactive)	> 100 µM (inactive)		64.6 µM (inactive)	43.3 µM (inactive)	50.5 µM (inactive)	22.8 µM (inactive)	55.7 µM (inactive)	76.9 µM (inactive)	27.7 µM (inactive)	52.2 µM (inactive)	58.9 µM (inactive)	46.8 µM (inactive)	42.4 µM (inactive)	15.3 µM (inactive)	53.6 µM (inactive)	49.1 µM (inactive)	91 µM (inactive)
C=CC(C)(C)n1cc(C2=C(O)C(=O)C(c3c(CC=C(C)C)[nH]c4ccccc34)=C(O)C2=O)c2ccccc21	2.39 µM (inactive)			0.979 µM (active)	1.6 µM (inactive)	3.03 µM (inactive)	0.711 µM (active)	1.57 µM (inactive)	1.71 µM (inactive)	1.34 µM (inactive)	1.87 µM (inactive)	0.998 µM (active)	0.571 µM (active)	0.796 µM (active)	1.32 µM (inactive)	2.3 µM (inactive)	2 µM (inactive)	1.91 µM (inactive)	1.04 µM (active)
CC1(C)CCC[C@@]2(C)C1C(=O)[C@@H]1O[C@]1(C)[C@@H]2CO (some centres not stated)		80 µM (inactive)	37.8 µM (inactive)	29.4 µM (inactive)	39 µM (inactive)	16.3 µM (inactive)	21 µM (inactive)	38.6 µM (inactive)	18.4 µM (inactive)	24.4 µM (inactive)	46.2 µM (inactive)	19.8 µM (inactive)	16.9 µM (inactive)	24.5 µM (inactive)	18.4 µM (inactive)	22.6 µM (inactive)	23.2 µM (inactive)	31.6 µM (inactive)	20.4 µM (inactive)
CC(=O)ON(C(C)=O)c1ccc(-c2nc3ccccc3s2)cc1		34.4 µM (inactive)	15.3 µM (inactive)	15.1 µM (inactive)	13.3 µM (inactive)	26 µM (inactive)	26.9 µM (inactive)	0.315 µM (active)	18.7 µM (inactive)	26.4 µM (inactive)	24.5 µM (inactive)	25.5 µM (inactive)	37.6 µM (inactive)	24.5 µM (inactive)	22.1 µM (inactive)	15.1 µM (inactive)	30.2 µM (inactive)	13.1 µM (inactive)	17.4 µM (inactive)
